Laboratory results from patent US10500209B2, “Quinazolinones as bromodomain inhibitors” (Zenith Epigenetics Ltd., priority 2013, dated 2019).

What was measured:
Set-up in all cases: key: Active: Compounds with an IC50 value less than 30 μM were deemed to be active.; Not Active: Compounds with an IC50 value less than 30 μM were deemed to be active
hIL-6 mRNA = assay: Inhibition of hIL-6 mRNA transcription in LPS-stimulated U937 macrophages; type: cell-based, human; conditions: U937 cells differentiated with PMA, LPS stimulation, 3 h
Method in brief: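 U937 cells, PMA-differentiated (60 ng/mL, 3 days), pretreated 1 h with compound, then stimulated with 1 ug/mL E. coli LPS for 3 h at 37° C. hIL-6 mRNA measured by one-step qRT-PCR, normalized to internal control, as fold induction relative to control.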

hIL-17 mRNA = assay: Inhibition of hIL-17 mRNA transcription in OKT3-stimulated PBMC; type: cell-based; conditions: human peripheral blood mononuclear cells, OKT3 antibody, 6 h
Procedure: In this example, hIL-17 mRNA in human peripheral blood mononuclear cells was quantitated to measure the transcriptional inhibition of hIL-17 when treated with a compound of the invention.
Human peripheral blood mononuclear cells were plated (2.0×10^5 cells per well) in a 96-well plate in 45 μL OpTimizer T Cell expansion media containing 20 ng/ml IL-2 and penicillin/streptomycin. The cells were treated with the test compound (45 μL at 2x concentration), and then the cells were incubated at 37° C. for 1 h before addition of 10x stock OKT3 antibody at 10 ug/ml in media. Cells were incubated at 37° C. for 6 h before the cells were harvested. At time of harvest, cells were centrifuged (800 rpm, 5 min). Spent media was removed and cell lysis solution (70 μL) was added the cells in each well and incubated for 5-10 min at room temperature, to allow for complete cell lysis and detachment. mRNA was then prepared using the “mRNA Catcher PLUS plate” (Invitrogen), according to the protocol supplied. […]
The eluted mRNA isolated was then used in a one-step quantitative RT-PCR reaction, using components of the Ultra Sense Kit together with Applied Biosystems primer-probe mixes. Real-time PCR data was analyzed, normalizing the Ct values for hIL-17 to an internal control, prior to determining the fold induction of each unknown sample, relative to the control.

[1] = biological target: T1, Brd4 bromodomain 1 (BRD4(1)) (Homo sapiens, UniProt O60885); assay: Inhibition of tetra-acetylated histone H4 binding to BET bromodomains (TR-FRET); conditions: first bromodomain of Brd4, tetra-acetylated histone H4 peptide
T1 construct: made in house; host or cells: E. coli BL21(DE3)
Method in brief: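 N-terminally His-tagged bromodomain (200 nM) from E. coli was mixed with biotinylated tetra-acetylated histone H4 peptide (25-50 nM), Eu-streptavidin and XL665 anti-His, plus compound, in HEPES pH 7.4 buffer with 0.2% DMSO. After 2 h at room temperature, the 665/620 nm TR-FRET decrease gave IC50 from dose-response curves.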

human AML MV-4-11 cells = assay: Inhibition of cell proliferation in cancer cell lines (CellTiter Aqueous One); type: cell-based; conditions: 72 h
Method in brief: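 IC50 values come from blank-corrected proliferation relative to DMSO controls, read as 490 nm absorbance 3–4 h after CellTiter Aqueous One addition. Before that, cells seeded at 5×10^4/well were exposed for 72 h (37° C, 5% CO2) to triplicate two-fold compound dilutions spanning 30–0.2 μM.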

c-myc in MV4-11 cells = assay: Inhibition of c-myc expression in cancer cell lines (mRNA, real-time PCR); type: cell-based, Human; conditions: 3 h
Method in brief: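 Duplex RT-qPCR of c-myc against cyclophilin cDNA gave IC50 from a dose–response curve. Input was isolated mRNA from 2.5×10^4 MV4-11 cells after 3 h exposure at 37 °C to compound or 0.1% DMSO vehicle.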

IL-6 activity (IC50 < 30 μM) (hIL-6 mRNA): Active
IL-17 activity (IC50 < 30 μM) (hIL-17 mRNA): Active
FRET activity BRD4(1) [1]: Active
Cell Proliferation activity (IC50 < 30 μM) (human AML MV-4-11 cells): Active
c-myc activity (IC50 < 30 μM) (c-myc in MV4-11 cells): Active
SMILES: COc1ccc(-c2nc3cc(OC)cc(OC)c3c(=O)[nH]2)c(NC2CCN(C(=O)C(C)C)CC2)c1 [Example 19, 2-(2-((1-Isobutyrylpiperidin-4-yl)amino)-4-methoxyphenyl)-5,7-dimethoxyquinazolin-4(3H)-one]
